Results as given in patent US11918693B2, “Ibuprofen and acetaminophen tablet” (GlaxoSmithKline Consumer Healthcare Holdings (US) LLC, priority 2019, dated 2024).

System: patients with moderate-severe pain after ≥3 third molar extractions
Assay: Study 2: phase 3 single-dose dental pain study, FDC vs IBU 250 mg, APAP 650 mg and placebo
Assay type: in vivo, human
Conditions: for Dizziness, treatment-emergent adverse event, n (%) / Flushing, treatment-emergent adverse event, n (%) / Headache, treatment-emergent adverse event, n (%) / Nausea, treatment-emergent adverse event, n (%) / Vomiting, treatment-emergent adverse event, n (%): Single-Dose Study 2; for SPID[11]0-8, Tx Diff vs. placebo: first treatment − second treatment, IBU 250 mg, APAP 650 mg; for Number (%) of patients with treatment failure: 12-hour study
Procedure: Two Studies were performed, both single-center, phase 3, randomized, double-blind, parallel-group, placebo-controlled studies conducted in the United States. Study 2 was a single-dose study whereas Study 3 was a multiple-dose study. The studies were performed in compliance with the ethical principles originating in or derived from the Declaration of Helsinki and in compliance with all International Council for Harmonization Good Clinical Practice Guidelines, as well as all local regulatory requirements.
In Study 2, patients experiencing moderate-severe pain after ≥3 third molar extractions, with at least 2 with partial or complete mandibular impaction, were randomized 3:3:3:1 to receive single-dose FDC IBU/APAP 250 mg/500 mg (administered as 2 tablets of IBU 125 mg/APAP 250 mg), IBU 250 mg alone, APAP 650 mg alone, or placebo under double-blind conditions. Patients self-assessed pain severity and pain relief on site for 12 hours following administration of study medication.
Rescue medication consisted of tramadol hydrochloride 50-100 mg or codeine sulfate 15-60 mg, both immediate release, and patients could administer additional doses every 4-6 hours as needed up to the maximum labeled daily dose. Patients who took rescue medication remained at the study site for the full duration of each study (12 or 48 hours, respectively) and continued to perform assessments.
In both studies 2 and 3, patients were healthy adult males or females aged 18-40 years inclusive, who had undergone surgical extraction of ≥3 third molar teeth (≥2 must have been partial or complete bony mandibular impactions). Other key entry criteria included moderate-severe pain confirmed by a rating of ≥50 mm on a 100-mm visual analog pain severity rating (PSR) scale within approximately 5 hours after completion of surgery and use of only the following preoperative medications/anesthetics: topical benzocaine, a short-acting parenteral local anesthetic (mepivacaine or lidocaine) with or -without a vasoconstrictor and/or nitrous oxide, and no contraindications to the study or rescue medications.
In Study 2, enrolled patients received one of 4 treatments: 1) placebo (administered as 2 tablets); 2) FDC IBU/APAP 250 mg/500 mg (administered as 2 caplets of IBU 125 mg/APAP 250 mg); 3) IBU 250 mg (administered as 2 caplets of IBU 125 mg); or APAP 650 mg (administered as 2 tablets of APAP 325 mg).
At baseline, patients provided self-ratings of pain severity using categorical and numerical PSR scales. The categorical PSR used a 4-point scale (none, mild, moderate, severe), with each category assigned a number from 0 (none) to 3 (severe). Patients reporting at least moderate pain on the categorical PSR at baseline completed a 100-mm visual analog scale. A score of at least 50 mm confirmed eligibility for the study. Additionally, an 11-point (0-10; 0=none to 10=worst possible pain) numerical PSR scale was also used to assess pain.
Once study treatment was administered, the categorical PSR, numerical PSR, and a 5-point categorical pain relief rating scale (0=none, 1=a little, 2=some, 3=a lot, 4=complete) were obtained at predefined assessment times to assess pain and pain relief. In Study 2 (single-dose trial), these assessments were performed at 0.25, 0.5, 1, 1.5, 2, 3, 4, 5, 6, 7, 8, 9, 10, 11, and 12 hours post-treatment. In Study 3 (multiple-dose trial), these assessments were performed at the same time points as in Study 2 up to 12 hours and also at 16, 24, 32, 40, and 48 hours post-treatment Additional evaluations included patient assessments of time to first perceptible pain relief (TFPR), defined as the time that a patient first began to feel any pain-relieving effect whatsoever of the drug and time to meaningful pain relief (TMPR), defined as the time that a patient experienced pain relief that was meaningful to that individual, using the double-stopwatch method, see Mehlisch D R et al., 2010, ibid. […]

[1] = IBU dose 250 mg, APAP dose 650 mg
[2] = Study 2, single oral dose, IBU dose 250 mg, APAP dose 650 mg

CC(=O)Nc1ccc(O)cc1 [APAP, N-(4-hydroxyphenyl)acetamide]
Dizziness, treatment-emergent adverse event, n (%) [1]: 12 (7.3) n (%) | Flushing, treatment-emergent adverse event, n (%) [1]: 1 (0.6) n (%) | Headache, treatment-emergent adverse event, n (%) [1]: 4 (2.4) n (%) | Nausea, treatment-emergent adverse event, n (%) [1]: 33 (20.0) n (%) | Vomiting, treatment-emergent adverse event, n (%) [1]: 20 (12.1) n (%) | SPID[11]0-8, Tx Diff vs. placebo (Study 2, LSM difference): 15.32 | Cumulative proportion of treatment failures after 8 hours [2]: 51.5% | Median duration of pain relief (time to treatment failure) [2]: 449.0 min | Median time to onset of first perceptible pain relief (TFPR) [2]: 24.2 min | Median time to onset of meaningful pain relief (TMPR) [2]: 56.6 min | Number (%) of patients with meaningful relief [2]: 118 (71.5) n (%) | Number (%) with event, first perceptible pain relief table [2]: 118 (71.5) n (%) | SPID[11]0-8, Mean (SD) [2]: 19.4 (20.0) | SPID[11]0-8, Median [2]: 16.8 | Number (%) of patients with treatment failure [2]: 105 (63.6) n (%)

CC(C)Cc1ccc(C(C)C(=O)O)cc1 (centres unmarked) [IBU, 2-(4-isobutylphenyl) propionic acid]
Dizziness, treatment-emergent adverse event, n (%) [1]: 6 (3.4) n (%) | Flushing, treatment-emergent adverse event, n (%) [1]: 2 (1.1) n (%) | Headache, treatment-emergent adverse event, n (%) [1]: 3 (1.7) n (%) | Nausea, treatment-emergent adverse event, n (%) [1]: 24 (13.7) n (%) | Vomiting, treatment-emergent adverse event, n (%) [1]: 15 (8.6) n (%) | SPID[11]0-8, Tx Diff vs. placebo (Study 2, LSM difference): 24.42 | SPID[11]0-8, Tx Diff vs. APAP (Study 2, LSM difference, comparator APAP 650 mg, IBU dose 250 mg): 9.10 | Cumulative proportion of treatment failures after 8 hours [2]: 33.1% | Median duration of pain relief (median time to treatment failure) [2]: 10.1 h | Median duration of pain relief (time to treatment failure) [2]: 608.5 min | Median time to onset of first perceptible pain relief (TFPR) [2]: 24.6 min | Median time to onset of meaningful pain relief (TMPR) [2]: 65.9 min | Number (%) of patients with meaningful relief [2]: 139 (79.4) n (%) | Number (%) with event, first perceptible pain relief table [2]: 139 (79.4) n (%) | SPID[11]0-8, Mean (SD) [2]: 28.9 (20.5) | SPID[11]0-8, Median [2]: 30.5 | Number (%) of patients with treatment failure [2]: 105 (60.0) n (%)
